Target: T1, hen egg white lysozyme (HEWL) (Gallus gallus, UniProt P00698)
T1 construct: gene LYZ
Assay: tryptophan fluorescence quenching
Type: binding
Details: 10 mM tris-HCl pH 7.5, room temperature; 10 µM HEWL, excitation 295 nm; double-log; fitted together with number of bound quencher molecules n
Description: tryptophan fluorescence quenching on hen egg white lysozyme (HEWL)

T1 sequence (P00698 19-147): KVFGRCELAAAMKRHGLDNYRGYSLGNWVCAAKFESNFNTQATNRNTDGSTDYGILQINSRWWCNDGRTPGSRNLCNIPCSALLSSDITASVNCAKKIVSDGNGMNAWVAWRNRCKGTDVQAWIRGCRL

Row | Ka [M⁻¹] | Substance
1 | 6.76e+08 | Cu^IIWD
2 | 6.91e+08 | α2WD

From paper PMC9887005, “Regioselective protein oxidative cleavage enabled by enzyme-like recognition of an inorganic metal oxo cluster ligand” (Nature Communications, 2023)
